Experimental data published in patent US4478828A, “Nonapeptide having immunostimulative activity, process for the preparation thereof, and its use” (Hoechst Aktiengesellschaft, priority 1982, dated 1984).
Square brackets hold non-standard residues; d marks the D form. Peptide text beside a SMILES is read from it. pGlu = O=C1CC[C@@H](C(=O)O)N1

Legend:
lymphocytes = assay: phythemagglutinin stimulation test (PHA test), 3H-thymidine incorporation; assay type: cell-based; details: for Stimulation index SI / Incorporation of 3H-thymidine: 20 μg PHA/ml, 72 hours; for Incorporation of 3H-thymidine: control 114 311
Method: (§1) The nonapeptide of the invention was tested in the Plaqueforming Cell Assay (PFC test) and in the phythemagglutinin stimulation test (PHA test) for its lymphocyte-stimulative action.
The PHA test allows conclusions on the amount of mature, that is, stimulable, lymphocytes by means of the function test on stimulability with the phytolectin PHA. The lectin, like bacterial or viral antigens, incites the lymphocytes to a blast transformation. It causesd proliferation either directly or by induction of lymphokine secretion.
The incorporation of radioactive thymidine within a defined period of time is then the measure for the number of stimulated cells. The mature or immunologically potent T cells only are stimulated. Thus, the influence of a substance on the maturation of lymphocytes can be observed by means of this test. However, stimulation must remain below the optimum; for, at a higher concentration other subpopulations of lymphocytes are stimulated, too, and the effect cannot be observed any longer. The peptide of the invention was added to the culture medium in varying concentrations.

spleen cells of mice = assay: Plaqueforming Cell Assay (PFC test), in vitro immunization with sheep erythrocytes; assay type: cell-based; details: for Plaques/10^6 cells: added daily, 5 days, control 768
Method: as §1
In the PFC test, cell cultures of freshly dissected spleens of mice (2×10^7 spleen cells per ml) were prepared in RPMI 1640 and 30 μl of fetal calf serum (FCS) per ml of cell culture. In vitro immunization is carried out with 5×10^7 sheep erythrocytes/ml. The test cell cultures are incubated daily with the corresponding dose of the test substance. After a test period of 5 days, the cells are centrifuged off, washed with RPMI 1640 medium, and the direct PCF test is carried out as follows: The cells are mixed in an agarose solution with a 10% sheep erythrocyte suspension, and poured onto a plane surface. In the gel layer so formed the stimulated lymphocytes set free antibodies in the subsequent incubation which diffuse in the environment and adhere to the sheep erythrocytes present in these places. After addition of guinea pig complement the red blood cells lyse. Light-colored, circular spots are formed in the reddish-brown gel, which can be discerned with a naked eye, and which are the hemolysis halos of the plaques. In the center of such hemoylsis halos there is an antibody-producing cell. The number of lymphoid cells which form specific immunoglobulins can therefore be equalized with the plaque values found.

[1] = toxic effects on administration (general statement)

## C[C@@H](O)[C@H](NC(=O)[C@H](CO)NC(=O)[C@H](CO)NC(=O)[C@H](CO)NC(=O)[C@H](CC(=O)O)NC(=O)[C@@H]1CCC(=O)N1)C(=O)NCC(=O)N[C@@H](Cc1c[nH]c2ccccc12)C(=O)N[C@@H](CC(N)=O)C(=O)O [nonapeptide, L-pyroglutamyl-L-aspartyl-L-seryl-L-seryl-L-seryl-L-threonyl-glycyl-L-tryptophyl-L-asparagine] ([pGlu]DSSSTGWN-OH)
lymphocytes; 0.0125 μg/ml nonapeptide
  Stimulation index SI: 0.89
  Incorporation of 3H-thymidine: 101 594 cpm
lymphocytes; 0.125 μg/ml nonapeptide
  Stimulation index SI: 1.20
  Incorporation of 3H-thymidine: 137 519 cpm
lymphocytes; 0.5 μg/ml nonapeptide
  Stimulation index SI: 1.26
  Incorporation of 3H-thymidine: 143 831 cpm
lymphocytes; 1.0 μg/ml nonapeptide
  Stimulation index SI: 1.00
  Incorporation of 3H-thymidine: 113 978 cpm
lymphocytes; 5.0 μg/ml nonapeptide
  Stimulation index SI: 0.94
  Incorporation of 3H-thymidine: 107 670 cpm
lymphocytes; PHA test, in words
  stimulation of the lymphocytes depending on the dose: bell-shaped curve
Spleen cells of mice; 1 ng/ml nonapeptide
  Plaques/10^6 cells: 908 Plaques/10^6 cells
Spleen cells of mice; 10 ng/ml nonapeptide
  Plaques/10^6 cells: 1112 Plaques/10^6 cells
Spleen cells of mice; 100 ng/ml nonapeptide
  Plaques/10^6 cells: 1024 Plaques/10^6 cells
Spleen cells of mice; 1 μg/ml nonapeptide
  Plaques/10^6 cells: 817 Plaques/10^6 cells
Spleen cells of mice; 5 μg/ml nonapeptide
  Plaques/10^6 cells: 802 Plaques/10^6 cells
Spleen cells of mice; PFC test, in words
  stimulation of the lymphocytes depending on the dose: bell-shaped curve
[1]
  toxic effects: toxic effects have not been observed hitherto
